The IC50 is the concentration that inhibits the measured activity by half. As usually defined, the MIC is the lowest concentration that inhibits growth of the organism.

One assay addresses T1, VIM-2 (Escherichia coli, UniProt Q5U7L7).
T1 construct: made in house; host or cells: E. coli BL21(DE3)
Description: β-Lactamase enzyme inhibition assay, VIM-2 (nitrocefin substrate). The assay is classed as biochemical. The conditions noted are these: nitrocefin substrate 100 μM, 15 min preincubation at 37° C.; read-out: IC50, Class B VIM-2. As to the method:
For Vim-2 metallo β-lactamase, the procedure was identical with the following exceptions, first the protein was not pH adjusted to pH 5 with 50 mM sodium acetate, second, the chromatography step was changed to a 5 ml Q sepharose anion exchange column pre-equilibrated with 50 mM Hepes pH 7.5, and elution of the protein was achieved by a linear gradient of NaCl (0-600 mM). Finally, the VIM-2 purification required a second run (3rd step) on the Q sepharose anion exchange column to achieve acceptable purity (>90%).
An equal volume of diluted enzyme stock was added, and the plates were incubated at 37° C. for 15 min. Nitrocefin was used as substrate for p99 AmpC, VIM-2 and OXA-1 and dispensed into each well at a final concentration of 100 μM. Absorbance at 486 nm was immediately monitored for 10 min using a Biotek Powerwave XS2 microplate spectrophotometer using the GEN5 softweare package (Biotek Instruments, Winooski Vt.). In an analogous fashion, imipenem was used as substrate for Kpc-2 and Cefotaxime was used for SHV-5, while changes in absorbance upon hydrolysis of the β-lactam ring were monitored at 300 nm and 260 nm respectively in UV-transparent 96-well microtiter assay plates. Maximum rates of hydrolysis were compared to those in control wells (without inhibitors), and percentages of enzyme inhibition were calculated for each concentration of inhibitor. The concentration of inhibitor needed to reduce the initial rate of hydrolysis of substrate by 50% (IC50) was calculated as the residual activity of β-lactamase at 486 nm using GraFit version 7 kinetics software package (Erithacus Software, Surrey, UK).
Using the methodology described above, examples of the current invention were evaluated for their ability to inhibit β-lactamase enzymes from all four Ambler classifications (A through D). […] NT=Not tested.

Assay [1] has as its system E. coli ESBL4 expressing CTX-M-15. Description: Broth microdilution MIC assay, partner ceftazidime.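 Note: ceftazidime held fixed at 4 µg/mL.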 The assay is classed as cell-based. The conditions noted are these: Escherichia coli, read-out: MIC of Exemplary Compounds in presence of fixed β-lactams, Fixed CAZ, E. coli ESBL4 CTX-M-15. A general note: Dilution methods test growth across graded concentrations, often in twofold steps.

The test system of assay [2] is E. cloacae 144200 expressing Class C P99 AmpC. Description: Broth microdilution MIC assay, partner ceftazidime.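 Note: ceftazidime held fixed at 4 µg/mL.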 Type of assay: cell-based. Conditions: Enterobacter cloacae, read-out: MIC of Exemplary Compounds in presence of fixed β-lactams, Fixed CAZ, E. cl. 144200 p99 AmpC.
The subject of assay [3] is K. pneumoniae 156319 expressing KPC-3. Description: Broth microdilution MIC assay, partner meropenem. Type of assay: cell-based. The conditions noted are these: Klebsiella pneumoniae, read-out: MIC of Exemplary Compounds in presence of fixed β-lactams, Fixed Mero, K.P. 156319 KPC-3.
The subject of assay [4] is P. aeruginosa Ps296 expressing VIM-2. The experiment in a line: Broth microdilution MIC assay, partner meropenem. Conditions: Pseudomonas aeruginosa, read-out: MIC of Exemplary Compounds in presence of fixed β-lactams, Fixed Mero, P. aerug. Ps296 VIM-2. Type of assay: cell-based.
Assay [5] has as its system K. pneumoniae A-1797 expressing KPC-2 and VIM-4. The experiment in a line: Broth microdilution MIC assay, partner meropenem. Type of assay: cell-based. The conditions noted are these: Klebsiella pneumoniae, read-out: MIC of Exemplary Compounds in presence of fixed β-lactams, Fixed Mero, K.P. A-1797 KPC-2 VIM-4.
Assay [6] concerns S. aureus MSSA-7 producing penicillinase PC-1. Description: Broth microdilution MIC assay, partner piperacillin. Conditions: Staphylococcus aureus, fixed piperacillin 4 μg/mL, read-out: MIC of Exemplary Compounds in presence of fixed β-lactams, Fixed Pip, S. aureus MSSA-7 PC-1. The assay is classed as cell-based.

Turning to `NC1=Nc2cc(C(=O)N[C@H]3Cc4cccc(C(=O)O)c4OB3O)ccc2CN1` [Example 15, (R)-3-(2-amino-3,4-dihydroquinazoline-7-carboxamido)-2-hydroxy-3,4-dihydro-2H-benzo[e][1,2]oxaborinine-8-carboxylic acid], the half-inhibitory concentration (IC50) on VIM-2 lay within 1000 to 10000 nM. In addition, the MIC in assay [1] is less than 4 µg/mL; in assay [2], less than 4 µg/mL; in assay [3] it was 8 to 32 µg/mL; in assay [4], less than 4 µg/mL; in assay [5], 8 to 32 µg/mL; in assay [6] it was less than 4 µg/mL.
In the case of `N=C(N)N1Cc2ccc(C(=O)N[C@H]3Cc4cccc(C(=O)O)c4OB3O)cc2C1` [Example 16, (R)-3-(2-carbamimidoylisoindoline-5-carboxamido)-2-hydroxy-3,4-dihydro-2H-benzo[e][1,2]oxaborinine-8-carboxylic acid], on VIM-2, the half-maximal inhibitory concentration (IC50) is less than 100 nM. Besides, the minimal inhibitory concentration (MIC) in assay [1], in assay [2], in assay [3], in assay [4], in assay [5] and in assay [6] was less than 4 µg/mL each time.
Turning to `NC1=NCc2ccc(C(=O)N[C@H]3Cc4cccc(C(=O)O)c4OB3O)cc2CN1` [Example 17, (R)-3-(3-amino-4,5-dihydro-1H-benzo[e][1,3]diazepine-7-carboxamido)-2-hydroxy-3,4-dihydro-2H-benzo[e][1,2]oxaborinine-8-carboxylic acid], at VIM-2, the IC50 is less than 100 nM. Moreover, the MIC in assay [1] was less than 4 µg/mL; in assay [2], less than 4 µg/mL; in assay [3] it was less than 4 µg/mL; in assay [4], 8 to 32 µg/mL; in assay [5] it was less than 4 µg/mL; in assay [6] it was less than 4 µg/mL.
Turning to `CN(C)Cc1ccc(C(=O)N[C@H]2Cc3cccc(C(=O)O)c3OB2O)cc1N` [Example 18, (R)-3-(3-amino-4-((dimethylamino)methyl)benzamido)-2-hydroxy-3,4-dihydro-2H-benzo[e][1,2]oxaborinine-8-carboxylic acid], the IC50 at VIM-2 fell in the range of 100 to 1000 nM. Also, the MIC in assay [1], in assay [2], in assay [3], in assay [4], in assay [5] and in assay [6] was less than 4 µg/mL each time.
Regarding `CNCc1ccc(C(=O)N[C@H]2Cc3cccc(C(=O)O)c3OB2O)cc1CNC` [Example 19, (R)-3-(3,4-bis((methylamino)methyl)benzamido)-2-hydroxy-3,4-dihydro-2H-benzo[e][1,2]oxaborinine-8-carboxylic acid], the IC50 on VIM-2 is less than 100 nM. For the same molecule, the MIC in assay [1], in assay [2], in assay [3], in assay [4], in assay [5] and in assay [6] was less than 4 µg/mL throughout.
For `NCc1ccc(CC(=O)N[C@H]2Cc3cccc(C(=O)O)c3OB2O)cc1CN` [Example 20, (R)-3-(2-(3,4-bis(aminomethyl)phenyl)acetamido)-2-hydroxy-3,4-dihydro-2H-benzo[e][1,2]oxaborinine-8-carboxylic acid], the 50% inhibitory concentration (IC50) on VIM-2 is less than 100 nM. Also, the MIC in assay [1], in assay [2], in assay [3], in assay [4], in assay [5] and in assay [6] was less than 4 µg/mL each time.
`CN(C)Cc1ccc(C(=O)N[C@H]2Cc3cccc(C(=O)O)c3OB2O)cc1NC(=O)[C@@H](N)CN` [Example 21, (R)-3-(3-((S)-2,3-diaminopropanamido)-4-((dimethylamino)methyl)benzamido)-2-hydroxy-3,4-dihydro-2H-benzo[e][1,2]oxaborinine-8-carboxylic acid]: on VIM-2, the IC50 was less than 100 nM. The MIC in assay [1] was less than 4 µg/mL; in assay [2] it was less than 4 µg/mL; in assay [3] it was 8 to 32 µg/mL; in assay [4], more than 32 µg/mL; in assay [5], 8 to 32 µg/mL; in assay [6], 8 to 32 µg/mL.
As for `Cc1ccc(C(=O)N[C@H]2Cc3cccc(C(=O)O)c3OB2O)cc1NC(=O)[C@@H](N)CN` [Example 22, (R)-3-(3-((S)-2,3-diaminopropanamido)-4-methylbenzamido)-2-hydroxy-3,4-dihydro-2H-benzo[e][1,2]oxaborinine-8-carboxylic acid], on VIM-2, the 50% inhibitory concentration (IC50) lay within 100 to 1000 nM. Besides, the MIC in assay [1] was less than 4 µg/mL; in assay [2], less than 4 µg/mL; in assay [3] it was less than 4 µg/mL; in assay [4], more than 32 µg/mL; in assay [5], 8 to 32 µg/mL; in assay [6], less than 4 µg/mL.
In the case of `Cc1ccc(C(=O)N[C@H]2Cc3cccc(C(=O)O)c3OB2O)cc1N` [Example 23, (R)-3-(3-amino-4-methylbenzamido)-2-hydroxy-3,4-dihydro-2H-benzo[e][1,2]oxaborinine-8-carboxylic acid], the IC50 at VIM-2 fell in the range of 100 to 1000 nM. The MIC in assay [1] was less than 4 µg/mL; in assay [2] it was less than 4 µg/mL; in assay [3], less than 4 µg/mL; in assay [4] it was 8 to 32 µg/mL; in assay [5], 8 to 32 µg/mL; in assay [6], less than 4 µg/mL.
In the case of `O=C(N[C@H]1Cc2cccc(C(=O)O)c2OB1O)c1ccc(-c2ccccn2)cc1` [Example 24, (R)-2-hydroxy-3-(4-(pyridin-2-yl)benzamido)-3,4-dihydro-2H-benzo[e][1,2]oxaborinine-8-carboxylic acid], the IC50 at VIM-2 lay in the range of 100 to 1000 nM. For the same molecule, the MIC in assay [1] was less than 4 µg/mL; in assay [2], less than 4 µg/mL; in assay [3] it was 8 to 32 µg/mL; in assay [4], 8 to 32 µg/mL; in assay [5], 8 to 32 µg/mL; in assay [6], less than 4 µg/mL.
For the molecule `N=C(N)NCc1ccc(C(=O)N[C@H]2Cc3cccc(C(=O)O)c3OB2O)cc1CNC(=N)N` [Example 25, (R)-3-(3,4-bis(guanidinomethyl)benzamido)-2-hydroxy-3,4-dihydro-2H-benzo[e][1,2]oxaborinine-8-carboxylic acid], the IC50 at VIM-2 was less than 100 nM. Besides, the minimum inhibitory concentration (MIC) in assay [1], in assay [2], in assay [3], in assay [4], in assay [5] and in assay [6] was less than 4 µg/mL each time.
In the case of `O=C(N[C@H]1Cc2cccc(C(=O)O)c2OB1O)c1ccc2[nH]ccc2c1` [Example 26, (R)-2-hydroxy-3-(1H-indole-5-carboxamido)-3,4-dihydro-2H-benzo[e][1,2]oxaborinine-8-carboxylic acid], the concentration for half-maximal inhibition (IC50) on VIM-2 lay within 100 to 1000 nM. In addition, the MIC in assay [1] is less than 4 µg/mL; in assay [2], less than 4 µg/mL; in assay [3] it was less than 4 µg/mL; in assay [4], 8 to 32 µg/mL; in assay [5], 8 to 32 µg/mL; in assay [6], less than 4 µg/mL.
As for `O=C(N[C@H]1Cc2cccc(C(=O)O)c2OB1O)c1ccc(-c2ccncc2)cc1` [Example 27, (R)-2-hydroxy-3-(4-(pyridin-4-yl)benzamido)-3,4-dihydro-2H-benzo[e][1,2]oxaborinine-8-carboxylic acid], on VIM-2, the half-maximal inhibitory concentration (IC50) was 1000 to 10000 nM. Also, the MIC in assay [1] is less than 4 µg/mL; in assay [2], less than 4 µg/mL; in assay [3], more than 32 µg/mL; in assay [4] it was more than 32 µg/mL; in assay [5], more than 32 µg/mL; in assay [6], less than 4 µg/mL.
